{
  "source": "patent US4693884A",
  "about": "“Technetium-99m triphosphonates and tetraphosphonates for the scintigraphic visualization of res-containing organs and lymph vessels, and a process for their preparation” (Hoechst Aktiengesellschaft, priority 1982, dated 1987)",
  "key": {"[1]": {"test": "Comparison of 99mTc TPB, 99mTc PTP and 99mTc phytate after intravenous injection to dogs", "format": "in vivo"}, "[2]": {"test": "Accumulation of phosphoric acid derivatives investigated as technetium-99m diagnostic agents (bone, liver, RES)", "conditions": "in vivo", "source_text": "It is possible to use phosphoric acid derivatives, particularly organic phosphonic acid derivatives, for bone scintigraphy. Many compounds have been investigated in the search for derivatives suitable as a technetium-99m diagnostic agent for bone."}, "[3]": {"conditions": "in vivo; cited from earlier work"}, "[4]": {"test": "Organ distribution of 99mTc-labeled substances in rats 30 minutes after injection as a function of the amount of substance administered", "format": "in vivo", "conditions": "for Blood/ml / Kidneys / Liver / Lung / Remainder of body / Spleen / Thyroid / tissue uptake at 0.5 h: 30 min after injection, n = 3; for tissue uptake at 0.5 h: rat, in vivo, iv, 0.05 mg, read-out: Femur/g", "experimental": "Assuming that 2-20 mg of TPB, ETP, PTP or phytate are administered to humans, and assuming that the weight of human is 80 kg, this corresponds to an amount administered of 25-250 μg/kg of body weight. Calculating on the basis of the body weight of rats weighing 200 g, then administration of 5-50 μg of TPB, ETP, PTP or phytate per rat exactly reflects the relationships.\nOrgan distribution of ^99m Tc TPB, ^99m TC ETP and ^99m Tc\nphytate in rats (n = 3) 30\nminutes after injection as a function of the amount of substance\n(all data as a percentage of the amount of activity administered)"}, "[5]": {"test": "Example 2: organ distribution in rats, frozen solution labeled with 99mTc", "format": "in vivo, Sprague-Dawley rats", "conditions": "femoral vein", "experimental": "400 mg of 2,4,4-triphosphonobutyric acid are dissolved in about 30 ml of double-distilled water. The pH of the solution, which is about 1.7 after this, is then adjusted to pH 6 using 1N NaOH. 8 mg of SnCl2.2H2 O in 1 ml of 0.1N HCl are added to this solution, and the pH is again adjusted to 6 using 0.1N NaOH, and then the solution is made up to 40 ml. All the operations are carried out under a protective atmosphere of nitrogen gas. The solution thus obtained is frozen in individual 1 ml portions.\nAfter 3 days, the solution is thawed and reacted with 1 ml of a ^99m Tc-pertechnetate solution which contains 4.44 MBq (120 μCi) of ^99m Tc. After 30 minutes, Sprague-Dawley rats weighing 200 g each receive 0.5 ml of this solution injected into the femoral vein. 3 animals are sacrificed with ether at 30 minutes and at 2 hours after the injection, and the organ distribution is determined."}, "[6]": {"test": "Lymphatic scintigraphy on dogs", "format": "in vivo, beagle dogs", "experimental": "In order to check the utilizability of the new diagnostic agent for lymphatic scintigraphy, lymphatic scintigraphy using ^99m Tc TPB was carried out on dogs.\nA TPB labeling unit which contained CaCl2 as described in Example 4 was prepared with 5 ml of ^99m Tc-pertechnetate solution which contained 5 mCi of ^99m Tc per ml. Adult beagle dogs each received 0.3-0.4 ml of this solution injected subcutaneously into the hind paw. The change in the distribution of radioactivity with time over the hind legs was then followed using a gamma camera for 4 hours. The site of injection was shielded with lead in each case."}, "[7]": {"conditions": "second amount column (printed 50 μg)"}, "[8]": {"conditions": "third amount column (printed 50 μg)"}, "[9]": {"conditions": "all amounts of substance investigated"}},
  "data": [
    {"molecule": "phytate [reference compound]", "values": [
      {"measurement": "excretion of activity with the urine", "setting": "[1]; dog, in vivo, iv, 0.5 h", "result": "6.6 % of the test dose"},
      {"measurement": "accumulation in bone", "setting": "[2]", "result": "higher"},
      {"measurement": "accumulation in the RES", "setting": "[2]", "result": "lower"},
      {"measurement": "accumulation of activity in the RES", "setting": "[3]", "result": "low compared with the products mentioned above"}
    ]},
    {"molecule": "O=C(O)C(CC(P(=O)(O)O)P(=O)(O)O)P(=O)(O)O", "note": "(stereo not shown) [TPB, 2,4,4-triphosphonobutyric acid]", "values": [
      {"measurement": "Blood/ml", "setting": "[4]; (50 μg)", "result": "0.05 percentage of the amount of ac"},
      {"measurement": "Kidneys", "setting": "[4]; (50 μg)", "result": "0.12 percentage of the amount of activity administered"},
      {"measurement": "Liver", "setting": "[4]; (50 μg)", "result": "95.8 percentage of the amount of activity administered"},
      {"measurement": "Lung", "setting": "[4]; (50 μg)", "result": "0.19 percentage of the amount of activity administered"},
      {"measurement": "Remainder of body", "setting": "[4]; (50 μg)", "result": "5.6 percentage of the amount of activity administered"},
      {"measurement": "Spleen", "setting": "[4]; (50 μg)", "result": "1.30 percentage of the amount of activity administered"},
      {"measurement": "Thyroid", "setting": "[4]; (50 μg)", "result": "0.03 percentage of the amount of activity administered"},
      {"measurement": "Blood/ml", "setting": "[4]; [7]", "result": "0.16 percentage of the amount of ac"},
      {"measurement": "Kidneys", "setting": "[4]; [7]", "result": "0.37 percentage of the amount of activity administered"},
      {"measurement": "Liver", "setting": "[4]; [7]", "result": "92.7 percentage of the amount of activity administered"},
      {"measurement": "Lung", "setting": "[4]; [7]", "result": "0.30 percentage of the amount of activity administered"},
      {"measurement": "Remainder of body", "setting": "[4]; [7]", "result": "11.5 percentage of the amount of activity administered"},
      {"measurement": "Spleen", "setting": "[4]; [7]", "result": "0.88 percentage of the amount of activity administered"},
      {"measurement": "Thyroid", "setting": "[4]; [7]", "result": "0.03 percentage of the amount of activity administered"},
      {"measurement": "Blood/ml", "setting": "[4]; [8]", "result": "0.19 percentage of the amount of ac"},
      {"measurement": "Kidneys", "setting": "[4]; [8]", "result": "0.39 percentage of the amount of activity administered"},
      {"measurement": "Liver", "setting": "[4]; [8]", "result": "88.7 percentage of the amount of activity administered"},
      {"measurement": "Lung", "setting": "[4]; [8]", "result": "0.29 percentage of the amount of activity administered"},
      {"measurement": "Remainder of body", "setting": "[4]; [8]", "result": "12.6 percentage of the amount of activity administered"},
      {"measurement": "Spleen", "setting": "[4]; [8]", "result": "0.99 percentage of the amount of activity administered"},
      {"measurement": "Thyroid", "setting": "[4]; [8]", "result": "0.03 percentage of the amount of activity administered"},
      {"measurement": "accumulation in the liver and spleen compared with phytate", "setting": "[4]; [9]", "result": "markedly higher than that of phytate"},
      {"measurement": "accumulation of activity in the kidneys, blood, femur and remainder of the body compared with phytate", "setting": "[4]; [9]", "result": "clearly lower than with phytate"},
      {"measurement": "suitability as diagnostic agent for visualization of RES-containing organs compared with 99mTc phytate", "setting": "[4]; deduction from the animal experiments", "result": "unambiguously superior"},
      {"measurement": "tissue uptake at 0.5 h", "setting": "[4]; [7]", "result": 0.29, "unit": "%ID/g"},
      {"measurement": "tissue uptake at 0.5 h", "setting": "[4]; [8]", "result": 0.3, "unit": "%ID/g"},
      {"measurement": "Blood/ml", "setting": "[5]; 30 min p.i.", "result": "0.03 percentage of the dose adminis"},
      {"measurement": "Kidneys", "setting": "[5]; 30 min p.i.", "result": "1.74 percentage of the dose adminis"},
      {"measurement": "Liver", "setting": "[5]; 30 min p.i.", "result": "86.5 percentage of the dose adminis"},
      {"measurement": "Remainder of body", "setting": "[5]; 30 min p.i.", "result": "9.08 percentage of the dose adminis"},
      {"measurement": "Spleen", "setting": "[5]; 30 min p.i.", "result": "2.40 percentage of the dose adminis"},
      {"measurement": "Thyroid", "setting": "[5]; 30 min p.i.", "result": "0.05 percentage of the dose adminis"},
      {"measurement": "urine", "setting": "[5]; 30 min p.i.", "result": "1.75 percentage of the dose adminis"},
      {"measurement": "Blood/ml", "setting": "[5]; 2 hours p.i.", "result": "0.01 percentage of the dose adminis"},
      {"measurement": "Kidneys", "setting": "[5]; 2 hours p.i.", "result": "1.12 percentage of the dose adminis"},
      {"measurement": "Liver", "setting": "[5]; 2 hours p.i.", "result": "88.3 percentage of the dose adminis"},
      {"measurement": "Remainder of body", "setting": "[5]; 2 hours p.i.", "result": "8.27 percentage of the dose adminis"},
      {"measurement": "Spleen", "setting": "[5]; 2 hours p.i.", "result": "3.06 percentage of the dose adminis"},
      {"measurement": "Thyroid", "setting": "[5]; 2 hours p.i.", "result": "0.04 percentage of the dose adminis"},
      {"measurement": "urine", "setting": "[5]; 2 hours p.i.", "result": "2.02 percentage of the dose adminis"},
      {"measurement": "tissue uptake at 0.5 h", "setting": "[5]; rat, bone, iv, 30 min p.i.", "result": 0.17, "unit": "%ID/g"},
      {"measurement": "tissue uptake at 2 h", "setting": "[5]; rat, bone, iv, 2 hours p.i.", "result": 0.22, "unit": "%ID/g"},
      {"measurement": "excretion of activity with the urine", "setting": "[1]; 30 min after injection, intravenous, dogs", "result": "0.6 % of the test dose"},
      {"measurement": "excretion of activity with the urine, compared with phytate", "setting": "[1]; intravenous, dogs", "result": "markedly less"},
      {"measurement": "decrease in activity via the liver after accumulation in the liver is complete", "setting": "[1]; intravenous, dogs, compared with phytate", "result": "slower"},
      {"measurement": "suitability for lymphatic scintigraphy", "setting": "[6]", "result": "also suitable for lymphatic scintigraphy"},
      {"measurement": "accumulation in bone", "setting": "[2]", "result": "virtually not at all"},
      {"measurement": "accumulation in the liver", "setting": "[2]", "result": "very preferentially accumulated in the liver"}
    ]}
  ]
}
